Results: ChEMBL document CHEMBL4354787, “Inhibitors of inosine 5'-monophosphate dehydrogenase as emerging new generation antimicrobial agents” (Medchemcomm, 2019)

Key:
[1] = biological target: Inosine-5'-monophosphate dehydrogenase 2 (Homo sapiens) (UniProt P12268); assay: Inhibition of human IMPDH2 relative to control; details: concentration not given here
[2] = Inhibition of Mycobacterium tuberculosis IMPDH2
[3] = biological target: Inosine-5'-monophosphate dehydrogenase (Mycobacterium tuberculosis (strain ATCC 25618 / H37Rv)) (UniProt P9WKI7); assay: Inhibition of Mycobacterium tuberculosis H37Rv IMPDH2 at 1 uM using IMP as substrate incubated for 20 mins in presence of NAD by UV spectrophotometric analysis relative to control
Sequence of Inosine-5'-monophosphate dehydrogenase (Mycobacterium tuberculosis (strain ATCC 25618 / H37Rv)) (P9WKI7 whole entry): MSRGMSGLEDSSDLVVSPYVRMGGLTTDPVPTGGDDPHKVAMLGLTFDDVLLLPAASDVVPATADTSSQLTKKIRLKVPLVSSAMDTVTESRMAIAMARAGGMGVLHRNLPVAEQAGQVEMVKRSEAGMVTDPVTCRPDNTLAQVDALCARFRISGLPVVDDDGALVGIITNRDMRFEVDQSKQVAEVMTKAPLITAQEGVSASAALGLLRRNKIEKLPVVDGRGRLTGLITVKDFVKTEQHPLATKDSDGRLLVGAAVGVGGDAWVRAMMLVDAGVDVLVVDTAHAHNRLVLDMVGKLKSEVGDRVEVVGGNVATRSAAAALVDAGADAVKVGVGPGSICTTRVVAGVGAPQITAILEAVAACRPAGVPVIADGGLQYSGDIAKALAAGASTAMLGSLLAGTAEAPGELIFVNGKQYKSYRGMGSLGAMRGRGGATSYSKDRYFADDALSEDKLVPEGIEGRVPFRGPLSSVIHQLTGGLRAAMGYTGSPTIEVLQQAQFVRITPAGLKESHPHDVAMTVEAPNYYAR

[4] = Inhibition of Helicobacter pylori IMPDH using IMP as substrate preincubated for 10 mins followed by addition of substrate and measured after 45 mins in presence of NAD by fluorescence based assay
[5] = Inhibition of Francisella tularensis IMPDH expressed in Escherichia coli BL21(DE3) deletion in guaB gene using IMP as substrate preincubated for 10 mins followed by substrate addition in presence of NAD by spectrophotometer
[6] = Inhibition of Helicobacter pylori IMPDH

Sequence of Inosine-5'-monophosphate dehydrogenase 2 (Homo sapiens) (P12268 2-514 limits assumed): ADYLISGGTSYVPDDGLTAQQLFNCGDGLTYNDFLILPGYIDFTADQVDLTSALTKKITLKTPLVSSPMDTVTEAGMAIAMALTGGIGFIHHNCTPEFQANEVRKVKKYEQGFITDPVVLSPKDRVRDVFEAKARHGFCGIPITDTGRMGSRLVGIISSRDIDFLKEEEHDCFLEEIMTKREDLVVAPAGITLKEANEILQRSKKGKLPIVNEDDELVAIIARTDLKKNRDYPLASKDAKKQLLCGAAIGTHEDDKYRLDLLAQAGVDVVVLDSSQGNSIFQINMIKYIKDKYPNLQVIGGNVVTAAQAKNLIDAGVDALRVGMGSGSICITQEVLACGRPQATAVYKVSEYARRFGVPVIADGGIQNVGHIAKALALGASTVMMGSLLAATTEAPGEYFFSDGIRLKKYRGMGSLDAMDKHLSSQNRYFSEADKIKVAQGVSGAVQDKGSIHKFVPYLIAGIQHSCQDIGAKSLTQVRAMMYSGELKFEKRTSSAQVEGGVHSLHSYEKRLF

O=C(Cc1ccc(F)c2ccccc12)Nc1ccc2c(c1)COC2=O
inhibition [1]: < 0.1% | IC50 [2]: 3.2 µM

O=C(Nc1ccc(Cl)c(Cl)c1)Nc1ccc(Br)cc1F
inhibition [3]: > 90%

COc1cccc(Cn2cc(COc3ccc(-c4nnc(C)o4)cc3)nn2)c1
IC50 [4]: 4.06 µM

O=C(Nc1cccc([N+](=O)[O-])c1)Nc1ccc(Cl)c(C(F)(F)F)c1
inhibition [3]: > 90%

CC(C(=O)Nc1ccc2c(c1)COC2=O)c1ccc(C(=O)c2ccccc2)cc1 (stereo not drawn)
IC50 [2]: 6.2 µM

C[C@H](Oc1cccc2ccccc12)C(=O)Nc1ccc2oc(-c3ccncc3)nc2c1
Ki [5]: 0.03 µM

C[C@H](Oc1cccc(Cl)c1Cl)C(=O)Nc1ccc2oc(-c3ccc(C(=O)NO)cc3)nc2c1
Ki [5]: 0.013 µM

Cc1ccc([N+](=O)[O-])cc1NC(=O)Nc1cccc(Cl)c1
inhibition [3]: > 90%

O=C(Cn1cc(C(=O)Nc2cccnc2)c2ccccc21)Nc1ccc(Br)cc1
IC50 [6]: 2.2 µM

COc1c(C)c2c(c(O)c1C/C=C(\C)CCC(=O)O)C(=O)OC2 [MYCOPHENOLIC ACID]
IC50 [2]: 27.2 µM

C[C@H](Oc1cccc(Cl)c1Cl)C(=O)Nc1ccc2oc(-c3ccncc3)nc2c1
Ki [5]: 0.022 µM

C[C@H](Oc1cccc(Cl)c1Cl)C(=O)Nc1ccc2oc(-c3ccc(C(=O)O)cc3)nc2c1
Ki [5]: 0.0155 µM
